Data taken from patent publication US4087450A, “(Polychlorophenoxy) methyl esters of thiocyanic acid” (priority 1977, dated 1978).
Converted amounts (≈) assume the structure as drawn.

Columns and labels:
mold growth [1] = test: outdoor exposure test, preservation of acrylic latex paint (modified ASTM D-1006); set-up: key to mold growth rating, 4 Mo. / mold growth rating, 5 Mo. / mold growth rating, 8 Mo.: 1: No mold growth; 2: Trace, <5% growth; 3: Trace, 5-10% growth; 4: 10-25% growth; 25-50% growth; 6: 50-70% growth; 70-90% growth; 8: 90-95% growth; 9: 100% growth; 100% growth, severe; details: for mold growth rating, 4 Mo.: 4 months outdoor; for mold growth rating, 5 Mo.: 5 months outdoor; for mold growth rating, 8 Mo.: 8 months outdoor; for mold growth rating, 10 Mo.: 10 months outdoor
From the text: (§1) Using a modification of ASTM D-1006, clear sapwood ponderosa pine boards 1/2 inch × 6 inches × 36 inches were primed with an unpreserved alkyd coating. A single coat of paint (alkyd or acrylic latex) incorporating compound (I) was brush applied. The boards were then exposed to the elements at Lake Jackson, Texas, and periodically readings were taken using the following rating scale: […]

mold growth [2] = test: outdoor exposure test, preservation of alkyd paint (modified ASTM D-1006); set-up: key to mold growth rating, 8 Mo. / mold growth rating, 4 Mo. / mold growth rating, 5 Mo.: 1: No mold growth; 2: Trace, <5% growth; 3: Trace, 5-10% growth; 4: 10-25% growth; 25-50% growth; 6: 50-70% growth; 70-90% growth; 8: 90-95% growth; 9: 100% growth; 100% growth, severe; details: for mold growth rating, 4 Mo.: 4 months outdoor; for mold growth rating, 5 Mo.: 5 months outdoor; for mold growth rating, 8 Mo.: 8 months outdoor; for mold growth rating, 10 Mo.: 10 months outdoor
From the text: as §1

[3] = water-leachability determination, retention on glass fiber paper; assay type: physicochemical; details: leached 8 hours, 20° C. water at 10 ml./sec., average of duplicate determinations
Experimental: (§2) To determine volatility and water solubility of the compounds, the following procedure was used: A 0.1 g. portion of each compound was dissolved in 2.0 ml. acetone. One-half of this solution was placed on a dry, pre-weighed, 7 cm. diameter sheet of glass fiber paper (Reeve Angel #934AH). The fiber paper was allowed to air dry for 24 hours and was re-weighed to determine the amount (0.05 g.) of the compound present. The other half of the solution was used to impregnate similarly another sheet of glass fiber paper. For the volatility determination, one of the papers was placed in a 50° C. oven for 7 days, removed, air cooled for 24 hours, and weighed. The percent retention given in Table II was calculated by the following formula: [formula]
For the water-leachability determination, the second impregnated paper was leached for 8 hours with 20° C. water running at 10 ml./sec. The fiber paper was allowed to air dry for 24 hours, then re-weighed. The percent retention was also calculated by the above formula. The figures recorded in following Table II represent the average of duplicate determinations.

Oysters = test: marine antifoulant activity, fouling of test panels; details: Compound I 0.14 g. in panel, TBTO 0.13 g. in panel, seawater
Experimental: (§3) The compounds of this invention also repel or are toxic towards lower forms of marine life such as barnacles, and thereby function effectively as marine antifoulants. In evaluating marine antifoulant activity, a comparison of compound (I) vs. a standard antifouling toxicant, bis(tri-n-butyltin) oxide (TBTO), was carried out by treating pre-weighed 21/2 inch by 21/2 inch by 1/4 inch porous silica test panels with a solution of the individual compound in methyl isobutyl ketone, allowing the solvent to air dry to constant weight, and then immersing the panels in seawater at a subtropical location which has dense populations of fouling organisms. Under these conditions, an untreated panel became completely fouled after two months' exposure.

Algae = test: as above; details: Compound I 0.14 g. in panel, TBTO 0.13 g. in panel, seawater
Experimental: as §3

Tunicates = test: as above; details: Compound I 0.14 g. in panel, TBTO 0.13 g. in panel, seawater
Experimental: as §3

Barnacles = test: as above; details: Compound I 0.14 g. in panel, TBTO 0.13 g. in panel, seawater
Experimental: as §3

Algae Spores = test: as above; details: Compound I 0.14 g. in panel, TBTO 0.13 g. in panel, seawater
Experimental: as §3

Tube Worms = test: as above; details: Compound I 0.14 g. in panel, TBTO 0.13 g. in panel, seawater
Experimental: as §3

Encrusting Bryozoans = test: as above; details: Compound I 0.14 g. in panel, TBTO 0.13 g. in panel, seawater
Experimental: as §3

Hydroids = test: as above; details: Compound I 0.14 g. in panel, TBTO 0.13 g. in panel, seawater
Experimental: as §3

Microfouling = test: as above; details: Compound I 0.14 g. in panel, TBTO 0.13 g. in panel, seawater
Experimental: as §3

Ceratocystis ips = test: conventional agar dilution test, 100% growth inhibition; assay type: cell-based; details: read-out: Concentration for 100% Growth Inhibition
From the text: (§4) In representative operations, the compounds of the present invention when tested for their activity as antimicrobials using conventional agar dilution tests give complete growth inhibition against C. albicans, T. mentagrophytes, C. pelliculosa, R. nigricans, C. ips, C. fragans and Trichoderma sp. 42. The following Table provides test data summaries in comparison with the activity of art compounds.

Candida pelliculosa = test: as above; assay type: cell-based; details: Hansenula anomala, read-out: Concentration for 100% Growth Inhibition
From the text: as §4

[4] = test system: Trichophyton mentagrophytes; test: as above; assay type: cell-based; details: read-out: Concentration for 100% Growth Inhibition
From the text: as §4

Pullularia pullulans = test: as above; assay type: cell-based; details: read-out: Concentration for 100% Growth Inhibition
From the text: as §4

Trichoderma species 42 = test: as above; assay type: cell-based; details: Trichoderma species 42, agar dilution; read-out: Concentration for 100% Growth Inhibition
From the text: as §4

Rhizopus nigricans = test: as above; assay type: cell-based; details: Rhizopus stolonifer, read-out: Concentration for 100% Growth Inhibition
From the text: as §4

Candida albicans = test: as above; assay type: cell-based; details: read-out: Concentration for 100% Growth Inhibition
From the text: as §4

[5] = volatility determination, retention on glass fiber paper; assay type: physicochemical; details: 50° C. oven for 7 days, average of duplicate determinations
Experimental: as §2

important fungi = test: fungicidal activity against important fungi; details: in words

N#CSCOc1cc(Cl)c(Cl)cc1Cl [Compound I, Thiocyanic Acid, (2,4,5-Trichlorophenoxy)Methyl Ester]
mold growth rating, 4 Mo. (mold growth [1]; 0.5 wt. % (I)): 1
mold growth rating, 5 Mo. (mold growth [1]; 0.5 wt. % (I)): 1
mold growth rating, 8 Mo. (mold growth [1]; 0.5 wt. % (I)): 1
mold growth rating, 10 Mo. (mold growth [1]; 0.5 wt. % (I)): 2 (Trace, <5% growth)
mold growth rating, 4 Mo. (mold growth [1]; 1.0 wt. % (I)): 1
mold growth rating, 5 Mo. (mold growth [1]; 1.0 wt. % (I)): 1
mold growth rating, 8 Mo. (mold growth [1]; 1.0 wt. % (I)): 1
mold growth rating, 10 Mo. (mold growth [1]; 1.0 wt. % (I)): 2 (Trace, <5% growth)
mold growth rating, 4 Mo. (mold growth [2]; 0.4 wt. % (I)): 9 (100% growth)
mold growth rating, 5 Mo. (mold growth [2]; 0.4 wt. % (I)): 9 (100% growth)
mold growth rating, 8 Mo. (mold growth [2]; 0.4 wt. % (I)): 1
mold growth rating, 10 Mo. (mold growth [2]; 0.4 wt. % (I)): 2 (Trace, <5% growth)
mold growth rating, 4 Mo. (mold growth [2]; 0.6 wt. % (I)): 8 (90-95% growth)
mold growth rating, 5 Mo. (mold growth [2]; 0.6 wt. % (I)): 9 (100% growth)
mold growth rating, 8 Mo. (mold growth [2]; 0.6 wt. % (I)): 1
mold growth rating, 10 Mo. (mold growth [2]; 0.6 wt. % (I)): 2 (Trace, <5% growth)
mold growth rating, 4 Mo. (mold growth [2]; 0.8 wt. % (I)): 4 (10-25% growth)
mold growth rating, 5 Mo. (mold growth [2]; 0.8 wt. % (I)): 3 (Trace, 5-10% growth)
mold growth rating, 8 Mo. (mold growth [2]; 0.8 wt. % (I)): 1
mold growth rating, 10 Mo. (mold growth [2]; 0.8 wt. % (I)): 2 (Trace, <5% growth)
mold growth rating, 4 Mo. (mold growth [2]; 1.0 wt. % (I)): 1
mold growth rating, 5 Mo. (mold growth [2]; 1.0 wt. % (I)): 1
mold growth rating, 8 Mo. (mold growth [2]; 1.0 wt. % (I)): 1
mold growth rating, 10 Mo. (mold growth [2]; 1.0 wt. % (I)): 2 (Trace, <5% growth)
Percent Retention, Water Extraction [3]: 92%
Percent Fouling of Test Panels (Oysters): 0%
Percent Fouling of Test Panels (Algae): 0%
Percent Fouling of Test Panels (Tunicates): 0%
Percent Fouling of Test Panels (Barnacles): 0%
Percent Fouling of Test Panels (Algae Spores): 30%
Percent Fouling of Test Panels (Tube Worms): 0%
Percent Fouling of Test Panels (Encrusting Bryozoans): 0%
Percent Fouling of Test Panels (Hydroids): 0%
Percent Fouling of Test Panels (Microfouling): 0%
MIC (Ceratocystis ips): 1 µg/mL (≈ 3.72 µM)
MIC (Candida pelliculosa): 10 µg/mL (≈ 37.2 µM)
MIC [4]: 0.1 µg/mL (≈ 0.372 µM)
MIC (Pullularia pullulans): 10 µg/mL (≈ 37.2 µM)
MIC (Trichoderma species 42): 10 µg/mL (≈ 37.2 µM)
MIC (Rhizopus nigricans): 10 µg/mL (≈ 37.2 µM)
MIC (Candida albicans): 10 µg/mL (≈ 37.2 µM)
Percent Retention, Volatility [5]: 74%

N#CSCOc1ccc(Cl)cc1Cl [Compound V]
Percent Retention, Water Extraction [3]: 52%
MIC (Ceratocystis ips): 10 µg/mL (≈ 42.7 µM)
MIC (Candida pelliculosa): 10 µg/mL (≈ 42.7 µM)
MIC [4]: 1 µg/mL (≈ 4.27 µM)
MIC (Pullularia pullulans): 10 µg/mL (≈ 42.7 µM)
MIC (Trichoderma species 42): 10 µg/mL (≈ 42.7 µM)
MIC (Rhizopus nigricans): 10 µg/mL (≈ 42.7 µM)
MIC (Candida albicans): 100 µg/mL (≈ 427 µM)
Percent Retention, Volatility [5]: 6%

N#CSCOc1c(Cl)cc(Cl)c(Cl)c1Cl [II, Thiocyanic Acid, (2,3,4,6-Tetrachlorophenoxy)Methyl Ester]
Percent Retention, Water Extraction [3]: 96%
MIC (Ceratocystis ips): 1 µg/mL (≈ 3.3 µM)
MIC (Candida pelliculosa): 10 µg/mL (≈ 33 µM)
MIC [4]: 1 µg/mL (≈ 3.3 µM)
MIC (Pullularia pullulans): 1 µg/mL (≈ 3.3 µM)
MIC (Trichoderma species 42): 1 µg/mL (≈ 3.3 µM)
MIC (Rhizopus nigricans): 100 µg/mL (≈ 330 µM)
MIC (Candida albicans): 10 µg/mL (≈ 33 µM)
Percent Retention, Volatility [5]: 49%

N#CSCOc1ccc(Cl)cc1 [III]
Percent Retention, Water Extraction [3]: 80%
MIC (Ceratocystis ips): 500 µg/mL (≈ 2500 µM)
MIC (Candida pelliculosa): 500 µg/mL (≈ 2500 µM)
MIC [4]: 100 µg/mL (≈ 501 µM)
MIC (Pullularia pullulans): 500 µg/mL (≈ 2500 µM)
MIC (Trichoderma species 42): 100 µg/mL (≈ 501 µM)
MIC (Rhizopus nigricans): 500 µg/mL (≈ 2500 µM)
MIC (Candida albicans): 500 µg/mL (≈ 2500 µM)
Percent Retention, Volatility [5]: 2%

Cc1cc(OCSC#N)ccc1Cl [IV]
Percent Retention, Water Extraction [3]: 71%
MIC (Ceratocystis ips): 500 µg/mL (≈ 2340 µM)
MIC (Candida pelliculosa): 500 µg/mL (≈ 2340 µM)
MIC [4]: 100 µg/mL (≈ 468 µM)
MIC (Pullularia pullulans): 500 µg/mL (≈ 2340 µM)
MIC (Trichoderma species 42): 100 µg/mL (≈ 468 µM)
MIC (Rhizopus nigricans): 500 µg/mL (≈ 2340 µM)
MIC (Candida albicans): 500 µg/mL (≈ 2340 µM)
Percent Retention, Volatility [5]: 12%

CCC[CH2][Sn]([CH2]CCC)([CH2]CCC)[O][Sn]([CH2]CCC)([CH2]CCC)[CH2]CCC [TBTO, bis(tri-n-butyltin) oxide, reference compound]
Percent Fouling of Test Panels (Oysters): 0%
Percent Fouling of Test Panels (Algae): 0%
Percent Fouling of Test Panels (Tunicates): 0%
Percent Fouling of Test Panels (Barnacles): 0%
Percent Fouling of Test Panels (Algae Spores): 20%
Percent Fouling of Test Panels (Tube Worms): 0%
Percent Fouling of Test Panels (Encrusting Bryozoans): 0%
Percent Fouling of Test Panels (Hydroids): 0%
Percent Fouling of Test Panels (Microfouling): 0%

N#CSCOc1c(Cl)c(Cl)c(Cl)c(Cl)c1Cl [VI]
Percent Retention, Water Extraction [3]: 98%
MIC (Ceratocystis ips): > 500 µg/mL
MIC (Candida pelliculosa): > 500 µg/mL
MIC [4]: 100 µg/mL (≈ 296 µM)
MIC (Pullularia pullulans): > 500 µg/mL
MIC (Trichoderma species 42): > 500 µg/mL
MIC (Rhizopus nigricans): > 500 µg/mL
MIC (Candida albicans): > 500 µg/mL
Percent Retention, Volatility [5]: 97%

N#CSCOc1c(Cl)c(Cl)c(Cl)c(Cl)c1Cl [pentachloro-(thiocyanatomethoxy)- benzene]
fungicidal activity against important fungi, relative to the compounds of this invention (important fungi): a small fraction of that of the compounds herein claimed
